From ChEMBL document CHEMBL4270495, “Oleanane-, ursane-, and quinone methide friedelane-type triterpenoid derivatives: Recent advances in cancer treatment” (Eur J Med Chem, 2017)

What was measured:
Type in all cases: functional, cell-based
MCF-12A = assay: Cytotoxicity in human MCF12A cells assessed as reduction in cell viability incubated for 24 hrs by MTT assay
MDA-MB-468 = assay: Cytotoxicity in human MDA-MB-468 cells assessed as reduction in cell viability incubated for 24 hrs by MTT assay; settings: MDA-MB-468, 24 h
T47D = assay: Cytotoxicity in human T47D cells assessed as reduction in cell viability incubated for 24 hrs by MTT assay
MCF7 [1] = assay: Cytotoxicity in human MCF7 cells assessed as reduction in cell viability incubated for 24 hrs by MTT assay; settings: MCF7, 24 h
HL60/ADR = assay: Cytotoxicity in human HL60/ADR cells assessed as reduction in cell viability incubated for 24 hrs by MTT assay
HL-60 = assay: Cytotoxicity in human HL60 cells assessed as reduction in cell viability incubated for 24 hrs by MTT assay; settings: HL-60, 24 h
MDA-MB-231 = assay: Cytotoxicity in human MDA-MB-231 cells assessed as reduction in cell viability incubated for 24 hrs by MTT assay; settings: MDA-MB-231, 24 h
HT-29 [2] = assay: Cytotoxicity in human HT-29 cells assessed as reduction in cell viability incubated for 96 hrs by SRB assay; settings: HT-29, 96 h
A549 [3] = assay: Cytotoxicity in human A549 cells assessed as reduction in cell viability incubated for 96 hrs by SRB assay; settings: A549, 96 h
SGC-7901 [4] = assay: Cytotoxicity in human SGC7901 cells assessed as reduction in cell viability incubated for 48 hrs by MTT assay; settings: SGC-7901, 48 h
SMMC-7721 = assay: Cytotoxicity in human SMMC7721 cells assessed as reduction in cell viability incubated for 48 hrs by MTT assay; settings: SMMC-7721, 48 h
HepG2 [5] = assay: Cytotoxicity in human HepG2 cells assessed as reduction in cell viability incubated for 72 hrs by CCK8 assay; settings: HepG2, 72 h
HeLa [6] = assay: Cytotoxicity in human HeLa cells assessed as reduction in cell viability incubated for 72 hrs by CCK8 assay
A549 [7] = assay: Cytotoxicity in human A549 cells assessed as reduction in cell viability incubated for 72 hrs by CCK8 assay; settings: A549, 72 h
PC-3 = assay: Cytotoxicity in human PC3 cells assessed as reduction in cell viability incubated for 72 hrs by CCK8 assay; settings: PC-3, 72 h
HT-29 [8] = assay: Cytotoxicity in human HT-29 cells assessed as reduction in cell viability incubated for 72 hrs by MTT assay; settings: HT-29, 72 h
HepG2 [9] = assay: Cytotoxicity in human HepG2 cells assessed as reduction in cell viability incubated for 72 hrs by MTT assay; settings: HepG2, 72 h
B16-F10 = assay: Cytotoxicity in mouse B16F10 cells assessed as reduction in cell viability incubated for 72 hrs by MTT assay; settings: B16-F10, 72 h
MCF7 [10] = assay: Cytotoxicity in human MCF7 cells assessed as reduction in cell viability incubated for 72 hrs by CCK8 assay; settings: MCF7, 72 h
SGC-7901 [11] = assay: Cytotoxicity in human SGC7901 cells assessed as reduction in cell viability incubated for 72 hrs by CCK8 assay; settings: SGC-7901, 72 h
MCF7 [12] = assay: Cytotoxicity in human MCF7 cells assessed as reduction in cell viability
HepG2 [13] = assay: Cytotoxicity in human HepG2 cells assessed as reduction in cell viability incubated for 24 hrs by MTT assay; settings: HepG2, 24 h
A-375 = assay: Cytotoxicity in human A375 cells assessed as reduction in cell viability incubated for 24 hrs by MTT assay; settings: A-375, 24 h
[14] = Cytotoxicity in human SPC-A1 cells assessed as reduction in cell viability incubated for 24 hrs by MTT assay; settings: SPCA1, 24 h
NCI-H446 = assay: Cytotoxicity in human NCI-H446 cells assessed as reduction in cell viability incubated for 24 hrs by MTT assay; settings: NCI-H446, 24 h
HepG2 [15] = assay: Cytotoxicity in human HepG2 cells assessed as reduction in cell viability incubated for 48 hrs by MTT assay; settings: HepG2, 48 h
HeLa [16] = assay: Cytotoxicity in human HeLa cells assessed as reduction in cell viability incubated for 48 hrs by MTT assay

## CC1(C)CC[C@@]23CC[C@]4(C)[C@@](OC2=O)([C@@H]3C1)[C@@H](Br)C[C@@H]1[C@@]2(C)CC/C(=N\O)C(C)(C)[C@@H]2CC[C@]14C
MCF-12A
  IC50: 20.4 µM
MDA-MB-468
  IC50: 5.81 µM
T47D
  IC50: 5.7 µM
MCF7 [1]
  IC50: 6.58 µM
HL60/ADR
  IC50: 12.1 µM
HL-60
  IC50: 10.2 µM
MDA-MB-231
  IC50: > 50 µM

## COC(=O)[C@]12CCC(C)(C)C[C@H]1C1=CC[C@@H]3[C@@]4(C)C[C@@H](OS(N)(=O)=O)[C@H](O)C(C)(C)[C@@H]4CC[C@@]3(C)[C@]1(C)CC2
HT-29 [2]
  IC50: 7.5 µM
A549 [3]
  IC50: 6.4 µM

## CC1=C(O)C(=O)C=C2C1=CC=C1[C@@]2(C)CC[C@@]2(C)[C@@H]3C[C@](C)(C(=O)NCCO)CC[C@]3(C)CC[C@]12C
SGC-7901 [4]
  IC50: 0.16 µM
SMMC-7721
  IC50: 300 nM

## CC(=O)OC[C@@]1(C)[C@@H]2CC[C@]3(C)[C@H](CC=C4[C@@H]5[C@@H](C)[C@H](C)CC[C@]5(C(=O)O)CC[C@]43C)[C@@]2(C)C[C@@H](OC(C)=O)[C@@H]1OC(C)=O
HepG2 [5]
  IC50: 10.2 µM
HeLa [6]
  IC50: 24.2 µM
A549 [7]
  IC50: 21.1 µM
PC-3
  IC50: 17.5 µM

## CC(=O)O[C@@H]1C[C@]2(C)[C@H]3CC=C4[C@@H]5CC(C)(C)CC[C@]5(C(=O)NCCCCCCCCCCC(=O)O)CC[C@@]4(C)[C@]3(C)CC[C@H]2C(C)(C)[C@H]1OC(C)=O
HT-29 [8]
  IC50: 3.1 µM
HepG2 [9]
  IC50: 14.2 µM
B16-F10
  IC50: 2400 nM

## COC(=O)C(C)NC(=O)[C@]12CC[C@@H](C)[C@H](C)[C@H]1C1=CC[C@@H]3[C@@]4(C)C[C@@H](OC(C)=O)[C@H](OC(C)=O)[C@@](C)(COC(C)=O)[C@@H]4CC[C@@]3(C)[C@]1(C)CC2 (some centres undefined)
MCF7 [10]
  IC50: 3.9 µM
HepG2 [5]
  IC50: 0.3 µM
HeLa [6]
  IC50: 5.1 µM
SGC-7901 [11]
  IC50: 9.2 µM
A549 [7]
  IC50: 3.1 µM
PC-3
  IC50: 10.1 µM

## C[C@H]1[C@H](C)CC[C@]2(C(N)=O)CC[C@]3(C)C(=CC[C@@H]4[C@@]5(C)CC[C@H](OC(=O)CCC(=O)O)C(C)(C)[C@@H]5CC[C@]43C)[C@H]12
MCF7 [12]
  IC50: 44.6 µM
HepG2 [13]
  IC50: 9.1 µM

## COC(=O)[C@]12CCC(C)(C)C[C@H]1C1=CC(=O)[C@@H]3[C@@]4(C)CC/C(=N\O)C(C)(C)[C@@H]4CC[C@@]3(C)[C@]1(C)CC2
MCF-12A
  IC50: 25.7 µM
MDA-MB-468
  IC50: 4.25 µM
T47D
  IC50: 10.1 µM
MCF7 [1]
  IC50: 3.22 µM
HL60/ADR
  IC50: 3.58 µM
HL-60
  IC50: 3.72 µM
MDA-MB-231
  IC50: 21.1 µM

## COC(=O)C(C)NC(=O)[C@]12CC[C@@H](C)[C@H](C)[C@H]1C1=CC[C@@H]3[C@@]4(C)C[C@@H](O)[C@H](O)[C@@](C)(CO)[C@@H]4CC[C@@]3(C)[C@]1(C)CC2 (some centres undefined)
MCF7 [10]
  IC50: 17.1 µM
HepG2 [5]
  IC50: 20.5 µM
HeLa [6]
  IC50: 19.2 µM
A549 [7]
  IC50: 21.8 µM

## C[C@H]1[C@H](C)CC[C@]2(C(N)=O)CC[C@]3(C)C(=CC[C@@H]4[C@@]5(C)CC[C@H](OC(=O)c6ccccc6)C(C)(C)[C@@H]5CC[C@]43C)[C@H]12
MCF7 [12]
  IC50: 44.6 µM
HepG2 [13]
  IC50: 8 µM

## CC(=O)OC[C@]1(C)[C@@H]2CC[C@]3(C)[C@H](C(=O)C=C4[C@H]5[C@](C(=O)OCC(=O)N/N=C/c6ccccc6)(CC[C@@H](C)[C@@]5(C)O)CC[C@]43C)[C@@]2(C)CC[C@@H]1OC(C)=O
A-375
  IC50: 3.1 µM
[14]
  IC50: 8.6 µM
NCI-H446
  IC50: 11.7 µM

## C[C@@H]1CC[C@]2(C(=O)O)CC[C@]3(C)C(=CC(=O)[C@@H]4[C@@]5(C)CC[C@H](O)[C@](C)(CO)[C@@H]5CC[C@]43C)[C@@H]2[C@]1(C)O
HepG2 [15]
  IC50: 8.26 µM
A-375
  IC50: 16.6 to 17.4 µM
SGC-7901 [4]
  IC50: 16.5 µM
HeLa [16]
  IC50: 18.7 µM
[14]
  IC50: 86 µM
HepG2 [13]
  IC50: 7.33 µM
NCI-H446
  IC50: 11.4 µM
